Source: US20250051762A1, “PLATFORM USING DNA-ENCODED SMALL MOLECULE LIBRARIES AND RNA SELECTION TO DESIGN SMALL MOLECULES THAT TARGET RNA” (University of Florida Research Foundation, Incorporated, priority 2021, published 2025)

Experiments:
Format in all cases: cell-based, human
ZBTB10 = assay: Western blot of ZBTB10 in MDA-MB-231 cells; details: relative to β-actin, 48 h
MDA-MB-231 cells [1] = assay: miRNome profiling of all miRNAs detectable in MDA-MB-231 cells; details: 1 μM, FDR <1%, P<0.01
MDA-MB-231 cells [2] = assay: Global proteomics profiling by LC-MS/MS in MDA-MB-231 cells
Protocol: Global proteomics profiling using LC-MS/MS: Treated cell pellets were resuspended in 1×PBS, lysed by sonication, and protein concentration was determined by using a Bradford assay (Bio-Rad). Samples (30 μg) were denatured in 6 M urea in 50 mM NH4HCO3, pH 8, reduced for 30 min with 10 mM TCEP, and alkylated for 30 min in the dark with 25 mM iodoacetamide. Samples were diluted to 2 M urea with 50 mM NH4HCO3, pH 8, and the proteins were digested with trypsin (1 μL of 0.5 μg/μL) in the presence of 1 mM CaCl2) for 12 h at 37° C. The samples were acidified by adding acetic acid to a final concentration of 5% (v/v). After desalting the samples over a self-packed C18 spin column, they were dried and analyzed by LC-MS/MS (see below). The resulting MS data were processed with MaxQuant as described below.
LC-MS/MS analysis: Peptides were dissolved in water containing 0.1% formic acid (FA) and analyzed using an EASY-nLC 1200 nano-UHPLC connected to a Q Exactive HF-X Quadrupole-Orbitrap mass spectrometer (Thermo Scientific). A 50 cm long, 75 μm i.d. chromatography column packed with ReproSil-Pur 120 C18-AQ 2.4 μm beads (Dr. Maisch GmbH) and capped by a 5 μm tip was used. Water with 0.1% FA in water (Buffer A) and 90% acetonitrile (MeCN): 10% water with 0.1% FA (Buffer B) were used as liquid chromatography solvents. A flow rate of 300 nL/min over a 240 min linear gradient (5-35% Buffer B) at 65° C. was used to clute peptides into the mass spectrometer. Data-dependent acquisition (top-20, NCE 28, R=7,500) after full MS scan (R=60,000, m/z 400-1,300) with a dynamic exclusion of 10 seconds was performed. Peptide match to prefer and isotope exclusion were selected and enabled.
MaxQuant analysis: The MaxQuant software (13) (V1.6.1.0) was used to analyzed the MS data and searched against the human proteome (Uniprot) and a common list of contaminants (included in MaxQuant). Peptide search tolerance was set to 20 ppm for the first search and 10 ppm for the main search while 0.02 Da was used for the fragment mass tolerance. The false discovery rate (FDR) for peptides, proteins and sites identification was set to 1%. Peptide length was set to at least 6 amino acids and peptide re-quantification was enabled. Label-free quantification (MaxLFQ) and “match between runs” were activated. Number of peptides per protein was set to ≥2. Searched modifications were methionine oxidation (variable modification) and carbamidomethylation of cysteines (fixed modification).
TargetScan analysis: TargetScanHuman v7.2 was used to predict downstream protein targets of miR-27a-3p (n=1421), miR-23a-3p (n=1342) and miR-24-3p (n=761) containing conserved sites, all proteins with a context score≤0 were included to the analysis per TargetScan recommendation. Approximately 15% of miR-27a-3p targets (220/1421), ˜18% of miR-23a-3p targets (247/1342), and ˜16% of miR-24-3p targets (122/761) were detectable in the global proteomics analysis. […] Targets of miR-23a-3p and miR-24-3p were used as comparison as the two miRNAs are expressed at similar levels as miR-27a-3p in MDA-MB-231 cells and are located in the same cluster. P values between distributions were calculated using a two-tailed Kolmogorov-Smirnov test.

[3] = 100 nM, 3,127 detectable proteins, FDR <5%
[4] = treated vs. vehicle, relative to all proteins

C#CCN(CC(N)=O)C(=O)C[C@H](Cc1c[nH]c2ccccc12)NC(=O)[C@@H]1C[C@H](NC(=O)Cn2c(=O)[nH]c3ccccc3c2=O)CN1 [Compound 9]
ZBTB10 expression (ZBTB10): upregulation | only statistically significant effect across the miRNome (MDA-MB-231 cells [1]): downregulation of miR-27a | number of proteins significantly downregulated (MDA-MB-231 cells [2]; [3]): five | number of proteins significantly upregulated (MDA-MB-231 cells [2]; [3]): 15 | upregulated proteins that are putative direct targets of miR-27a (MDA-MB-231 cells [2]; 100 nM, of the 15 upregulated, per TargetScan): Eleven | cumulative distribution of fold change of miR-23a-3p targets (MDA-MB-231 cells [2]; [4]): no significant change | cumulative distribution of fold change of miR-24-3p targets (MDA-MB-231 cells [2]; [4]): no significant change | cumulative distribution of fold change of miR-27a-3p targets (MDA-MB-231 cells [2]; [4]): significant upregulation
